Molecular target: Human complement C1s enzyme (Homo sapiens (Human), UniProt P09871)
Assay: Human C1s enzyme assay
Type: biochemical
Details: Human C1s enzyme assay of Example 3; read-out: IC50 (Stars)
Description: Human complement C1s enzyme (purified from human serum, Complement Technology, Inc.) at 1.16 nM final concentration was incubated with test compound at various concentrations for 5 min at room temperature in 50 mM Tris, 1 M NaCl, pH 7.5. A synthetic substrate Z-L-Lys-SBzl and DTNB (Ellman's reagent) were added to final concentrations of 100 μM each. Absorbance at 405 nm (A405) was recorded at 30 second intervals for 30 min using a microplate spectrophotometer. IC50 values were calculated by nonlinear regression of complement C1s reaction rates as a function of test compound concentration.

Chain of Human complement C1s enzyme (P09871 438-688 limits assumed): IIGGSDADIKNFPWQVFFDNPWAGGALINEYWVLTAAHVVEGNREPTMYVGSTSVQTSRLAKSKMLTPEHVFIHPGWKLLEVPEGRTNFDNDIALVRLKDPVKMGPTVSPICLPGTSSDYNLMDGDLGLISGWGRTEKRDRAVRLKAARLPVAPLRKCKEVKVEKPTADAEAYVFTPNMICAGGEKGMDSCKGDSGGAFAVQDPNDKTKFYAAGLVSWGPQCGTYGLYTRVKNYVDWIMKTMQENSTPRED
Chain of Human complement C1s enzyme (P09871 16-437 partner limits assumed): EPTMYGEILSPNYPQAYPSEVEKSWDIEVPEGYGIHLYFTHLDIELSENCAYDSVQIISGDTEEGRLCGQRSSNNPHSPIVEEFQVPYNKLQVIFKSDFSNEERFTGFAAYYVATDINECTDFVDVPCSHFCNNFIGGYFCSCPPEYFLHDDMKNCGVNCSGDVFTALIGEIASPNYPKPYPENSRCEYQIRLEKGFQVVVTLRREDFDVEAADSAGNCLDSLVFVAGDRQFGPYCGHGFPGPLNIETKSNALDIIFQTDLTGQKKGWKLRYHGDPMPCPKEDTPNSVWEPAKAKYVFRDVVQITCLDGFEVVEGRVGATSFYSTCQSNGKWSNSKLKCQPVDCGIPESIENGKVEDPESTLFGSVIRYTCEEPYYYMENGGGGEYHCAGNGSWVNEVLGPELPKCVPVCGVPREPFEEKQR

Row | Structure (SMILES) | IC50 [nM]
1 | C[C@@H](NC(=O)[C@@H]1C[C@@H](OC(F)F)CN1C(=O)CNC(=O)c1ccc2c(c1)-c1ccccc1C2(F)F)c1cc(C(=N)N)cs1 [Compound 9, (2S,4R)—N—((R)-1-(4-carbamimidoylthiophen-2-yl)ethyl)-1-((9,9-difluoro-9H-fluorene-3-carbonyl)glycyl)-4-(difluoromethoxy)pyrrolidine-2-carboxamide] | < 100
2 | C[C@@H](NC(=O)[C@@H]1C[C@](F)(CF)CN1C(=O)CNC(=O)c1ccc2c(c1)-c1ccccc1C2(F)F)c1cc(C(=N)N)cs1 [Compound 11, (2S,4R)—N-[(1R)-1-(4-carbamimidoylthiophen-2-yl)ethyl]-1-{2-[(9,9-difluorofluoren-3-yl)formamido]acetyl}-4-fluoro-4-(fluoromethyl) pyrrolidine-2-carboxamide] | < 100
3 | C[C@@H](NC(=O)[C@@H]1C[C@](F)(CF)CN1C(=O)CNC(=O)c1ccc2c(c1)-c1ccccc1C2)c1cc(C(=N)N)cs1 [Compound 12, (2S,4R)—N-[(1R)-1-(4-carbamimidoylthiophen-2-yl)ethyl]-1-[2-(9H-fluoren-3-ylformamido)acetyl]-4-fluoro-4-(fluoromethyl)pyrrolidine-2-carboxamide] | < 100
4 | C[C@@H](NC(=O)[C@@H]1C[C@](F)(CF)CN1C(=O)CNC(=O)c1ccc(Oc2ccc(F)cc2)cc1)c1cc(C(=N)N)cs1 [Compound 13] | < 100
5 | C[C@@H](NC(=O)[C@@H]1C[C@]2(C)C[C@@H]2N1C(=O)CNC(=O)c1ccc(Oc2ccc(F)cc2)cc1)c1cc(C(=N)N)cs1 [Compound 16, (1S,3S,5S)—N-[(1R)-1-(4-carbamimidoylthiophen-2-yl)ethyl]-2-(2-{[4-(4-fluorophenoxy)phenyl]formamido}acetyl)-5-methyl-2-azabicyclo[3.1.0]hexane-3-carboxamide] | < 100
6 | COC[C@@]1(F)C[C@@H](C(=O)N[C@H](C)c2cc(C(=N)N)cs2)N(C(=O)CNC(=O)c2ccc(Oc3ccc(C)cc3)cc2)C1 [Compound 19, (2S,4R)—N—((R)-1-(4-carbamimidoylthiophen-2-yl)ethyl)-4-fluoro-4-(methoxymethyl)-1-((4-(p-tolyloxy)benzoyl)glycyl)pyrrolidine-2-carboxamide] | < 100
7 | COC[C@@]1(F)C[C@@H](C(=O)N[C@H](C)c2cc(C(=N)N)cs2)N(C(=O)CNC(=O)c2ccc3c(c2)-c2ccccc2C3(F)F)C1 [Compound 20, (2S,4R)—N—((R)-1-(4-carbamimidoylthiophen-2-yl)ethyl)-1-((9,9-difluoro-9H-fluorene-3-carbonyl)glycyl)-4-fluoro-4-(methoxymethyl)pyrrolidine-2-carboxamide] | < 100
8 | Cc1ccc(Oc2ccc(C(=O)NCC(=O)N3[C@H]4C[C@@]4(C)C[C@H]3C(=O)N[C@H](C)c3cc(C(=N)N)cs3)cc2C)cc1 [Compound 25, (1S,3S,5S)—N—((R)-1-(4-carbamimidoylthiophen-2-yl)ethyl)-5-methyl-2-((3-methyl-4-(p-tolyloxy)benzoyl)glycyl)-2-azabicyclo[3.1.]hexane-3-carboxamide] | < 100
9 | Cc1cc(C(=O)NCC(=O)N2[C@H]3C[C@@]3(C)C[C@H]2C(=O)N[C@H](C)c2cc(C(=N)N)cs2)ccc1Oc1ccccc1 [Compound 28, (1S,3S,5S)—N—((R)-1-(4-carbamimidoylthiophen-2-yl)ethyl)-5-methyl-2-((3-methyl-4-phenoxybenzoyl)glycyl)-2-azabicyclo[3.1.0]hexane-3-carboxamide] | < 100
10 | C[C@@H](NC(=O)[C@@H]1C[C@]2(C)C[C@@H]2N1C(=O)CNC(=O)c1ccc2c(c1)-c1ccccc1C2(F)F)c1ccc(C(=N)N)s1 [Compound 29, (1S,3S,5S)—N—((R)-1-(5-carbamimidoylthiophen-2-yl)ethyl)-2-((9,9-difluoro-9H-fluorene-3-carbonyl)glycyl)-5-methyl-2-azabicyclo[3.1.0]hexane-3-carboxamide] | < 100
11 | Cc1cc(C(=O)NCC(=O)N2C[C@@](F)(CF)C[C@H]2C(=O)N[C@H](C)c2cc(C(=N)N)cs2)ccc1Oc1ccccc1 [Compound 32, (2S,4R)—N—((R)-1-(4-carbamimidoylthiophen-2-yl)ethyl)-4-fluoro-4-(fluoromethyl)-1-((3-methyl-4-phenoxybenzoyl)glycyl)pyrrolidine-2-carboxamide] | < 100
12 | C[C@@H](NC(=O)[C@@H]1C[C@](F)(CF)CN1C(=O)CNC(=O)c1ccc2c(c1)-c1ccccc1C2(F)F)c1ccc(C(=N)N)s1 [Compound 33, (2S,4R)—N—((R)-1-(5-carbamimidoylthiophen-2-yl)ethyl)-1-((9,9-difluoro-9H-fluorene-3-carbonyl)glycyl)-4-fluoro-4-(fluoromethyl)pyrrolidine-2-carboxamide] | < 100

Next, values leading:

Row | IC50 [nM] | Structure (SMILES)
13 | < 100 | Cc1ccc(Oc2ccc(C(=O)NCC(=O)N3C[C@H](OC(F)F)C[C@H]3C(=O)NCc3cc(C(=N)N)cs3)cc2)cc1 [Compound 10, (2S,4R)—N-((4-carbamimidoylthiophen-2-yl)methyl)-4-(difluoromethoxy)-1-((4-(p-tolyloxy)benzoyl)glycyl)pyrrolidine-2-carboxamide]
14 | < 100 | Cc1ccc(Oc2ccc(C(=O)NCC(=O)N3C[C@@](F)(CF)C[C@H]3C(=O)N[C@H](C)c3cc(C(=N)N)cs3)cc2)cc1 [Compound 14, (2S,4R)—N—((R)-1-(4-carbamimidoylthiophen-2-yl)ethyl)-4-fluoro-4-(fluoromethyl)-1-((4-(p-tolyloxy)benzoyl)glycyl)pyrrolidine-2-carboxamide]
15 | < 100 | C[C@@H](NC(=O)[C@@H]1C[C@](F)(CF)CN1C(=O)CNC(=O)c1ccc(Oc2ccc(C(F)(F)F)cc2)cc1)c1cc(C(=N)N)cs1 [Compound 15, (2S,4R)—N-[(1R)-1-(4-carbamimidoylthiophen-2-yl)ethyl]-4-fluoro-4-(fluoromethyl)-1-[2-({4-[4-(trifluoromethyl)phenoxy]phenyl}formamido)acetyl]pyrrolidine-2-carboxamide]
16 | < 100 | COC[C@@]1(F)C[C@@H](C(=O)N[C@H](C)c2cc(C(=N)N)cs2)N(C(=O)CNC(=O)c2ccc(Oc3ccc(F)cc3)cc2)C1 [Compound 17, (2S,4R)—N—((R)-1-(4-carbamimidoylthiophen-2-yl)ethyl)-4-fluoro-1-((4-(4-fluorophenoxy)benzoyl)glycyl)-4-(methoxymethyl)pyrrolidine-2-carboxamide]
17 | < 100 | COC[C@@]1(F)C[C@@H](C(=O)N[C@H](C)c2cc(C(=N)N)cs2)N(C(=O)CNC(=O)c2ccc(Oc3ccc(C(F)(F)F)cc3)cc2)C1 [Compound 18, (2S,4R)—N—((R)-1-(4-carbamimidoylthiophen-2-yl)ethyl)-4-fluoro-4-(methoxymethyl)-1-((4-(4-(trifluoromethyl)phenoxy)benzoyl)glycyl)pyrrolidine-2-carboxamide]
18 | < 100 | C[C@@H](NC(=O)[C@@H]1CC2(CN1C(=O)CNC(=O)c1ccc3c(c1)-c1ccccc1C3(F)F)OCCO2)c1cc(C(=N)N)cs1 [Compound 21, (S)—N—((R)-1-(4-carbamimidoylthiophen-2-yl)ethyl)-7-((9,9-difluoro-9H-fluorene-3-carbonyl)glycyl)-1,4-dioxa-7-azaspiro[4.4]nonane-8-carboxamide]
19 | < 100 | Cc1ccc(Oc2ccc(C(=O)NCC(=O)N3CC4(C[C@H]3C(=O)N[C@H](C)c3cc(C(=N)N)cs3)OCCO4)cc2)cc1 [Compound 22, (S)—N—((R)-1-(4-carbamimidoylthiophen-2-yl)ethyl)-7-((4-(p-tolyloxy)benzoyl)glycyl)-1,4-dioxa-7-azaspiro[4.4]nonane-8-carboxamide]
20 | < 100 | C[C@@H](NC(=O)[C@@H]1CC2(CN1C(=O)CNC(=O)c1ccc(Oc3ccc(F)cc3)cc1)OCCO2)c1cc(C(=N)N)cs1 [Compound 23, (S)—N—((R)-1-(4-carbamimidoylthiophen-2-yl)ethyl)-7-((4-(4-fluorophenoxy)benzoyl)glycyl)-1,4-dioxa-7-azaspiro[4.4]nonane-8-carboxamide]
21 | < 100 | Cc1cc(C(=O)NCC(=O)N2C[C@H](OC(F)F)C[C@H]2C(=O)N[C@H](C)c2cc(C(=N)N)cs2)ccc1Oc1ccccc1 [Compound 24, (2S,4R)—N—((R)-1-(4-carbamimidoylthiophen-2-yl)ethyl)-4-(difluoromethoxy)-1-((3-methyl-4-phenoxybenzoyl)glycyl)pyrrolidine-2-carboxamide]
22 | < 100 | Cc1ccc(Oc2ccc(C(=O)NCC(=O)N3[C@H]4C[C@@]4(C)C[C@H]3C(=O)N[C@H](C)c3ccc(C(=N)N)s3)cc2)cc1 [Compound 26, (1S,3S,5S)—N—((R)-1-(5-carbamimidoylthiophen-2-yl)ethyl)-5-methyl-2-((4-(p-tolyloxy)benzoyl)glycyl)-2-azabicyclo[3.1.0]hexane-3-carboxamide]
23 | < 100 | Cc1cc(C(=O)NCC(=O)N2[C@H]3C[C@@]3(C)C[C@H]2C(=O)N[C@H](C)c2cc(C(=N)N)cs2)ccc1Oc1ccc(F)cc1 [Compound 27, (1S,3S,5S)—N—((R)-1-(4-carbamimidoylthiophen-2-yl)ethyl)-2-((4-(4-fluorophenoxy)-3-methylbenzoyl)glycyl)-5-methyl-2-azabicyclo[3.1.0]hexane-3-carboxamide]
24 | < 100 | C[C@@H](NC(=O)[C@@H]1C[C@@H](OC(F)F)CN1C(=O)CNC(=O)c1ccc2c(c1)-c1ccccc1C2(F)F)c1ccc(C(=N)N)s1 [Compound 30, (2S,4R)—N—((R)-1-(5-carbamimidoylthiophen-2-yl)ethyl)-1-((9,9-difluoro-9H-fluorene-3-carbonyl)glycyl)-4-(difluoromethoxy)pyrrolidine-2-carboxamide]
25 | < 100 | Cc1cc(C(=O)NCC(=O)N2[C@H]3C[C@@]3(C)C[C@H]2C(=O)N[C@H](C)c2ccc(C(=N)N)s2)ccc1Oc1ccccc1 [Compound 31, (1S,3S,5S)—N—((R)-1-(5-carbamimidoylthiophen-2-yl)ethyl)-5-methyl-2-((3-methyl-4-phenoxybenzoyl)glycyl)-2-azabicyclo[3.1.0]hexane-3-carboxamide]
